Experimental data from ChEMBL document CHEMBL1132238, “A peptide agonist acts by occupation of a monomeric G protein-coupled receptor: dual sites of covalent attachment to domains near TM1 and TM7 of the same molecule make biologically significant domain-swapped dimerization unlikely” (J Med Chem, 1999).

Target: T1, Cholecystokinin receptor (Homo sapiens, UniProt P32239+P32238)
T1 sequence (P32239 whole entry): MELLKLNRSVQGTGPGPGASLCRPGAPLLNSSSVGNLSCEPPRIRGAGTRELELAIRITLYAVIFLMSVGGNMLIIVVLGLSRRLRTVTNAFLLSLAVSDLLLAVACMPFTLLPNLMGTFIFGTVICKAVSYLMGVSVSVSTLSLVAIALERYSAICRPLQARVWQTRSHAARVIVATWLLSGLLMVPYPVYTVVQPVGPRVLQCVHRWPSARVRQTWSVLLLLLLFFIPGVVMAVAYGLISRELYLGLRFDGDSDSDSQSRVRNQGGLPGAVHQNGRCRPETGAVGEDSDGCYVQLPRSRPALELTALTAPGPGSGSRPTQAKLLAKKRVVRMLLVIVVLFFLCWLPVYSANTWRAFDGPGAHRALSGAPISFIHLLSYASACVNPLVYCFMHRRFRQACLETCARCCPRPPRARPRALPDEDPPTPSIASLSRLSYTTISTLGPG
T1 sequence (P32238 whole entry): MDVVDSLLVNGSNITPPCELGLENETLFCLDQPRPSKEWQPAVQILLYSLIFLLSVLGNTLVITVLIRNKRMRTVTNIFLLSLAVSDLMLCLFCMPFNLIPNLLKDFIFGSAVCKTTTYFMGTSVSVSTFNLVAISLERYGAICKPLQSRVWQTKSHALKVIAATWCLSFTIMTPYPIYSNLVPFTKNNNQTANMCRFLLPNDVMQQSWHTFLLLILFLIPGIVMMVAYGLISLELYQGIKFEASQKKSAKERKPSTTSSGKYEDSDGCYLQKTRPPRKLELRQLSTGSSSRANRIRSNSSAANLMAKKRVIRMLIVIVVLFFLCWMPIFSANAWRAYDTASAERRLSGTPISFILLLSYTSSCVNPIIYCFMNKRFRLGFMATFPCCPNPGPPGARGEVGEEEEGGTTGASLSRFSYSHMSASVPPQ
Assay: Ability to stimulate intracellular calcium response was determined using CCK receptor-bearing chinese hamster ovary cell line
Assay type: functional, cell-based, Cricetulus griseus

EC50	SMILES
280 nM	CCCC[C@H](NC(=O)[C@H](Cc1ccc(OS(=O)(=O)O)cc1)NC(=O)[C@H](CC(=O)O)NC(=O)CNC(=O)[C@H](N)Cc1ccc(O)cc1)C(=O)NCC(=O)N[C@@H](Cc1c[nH]c2ccccc12)C(=O)N[C@@H](CCCC)C(=O)N[C@@H](CC(=O)O)C(=O)N[C@@H](Cc1ccc(C(=O)c2ccccc2)cc1)C(N)=O
28 nM	CCCC[C@H](NC(=O)[C@H](Cc1c[nH]c2ccccc12)NC(=O)[C@H](Cc1ccc(C(=O)c2ccccc2)cc1)NC(=O)[C@H](CCCC)NC(=O)[C@H](Cc1ccc(OS(=O)(=O)O)cc1)NC(=O)[C@H](CC(=O)O)NC(=O)CNC(=O)[C@H](N)Cc1ccc(O)cc1)C(=O)N[C@@H](CC(=O)O)C(=O)N[C@@H](Cc1ccccc1)C(N)=O
150 nM	CCCC[C@H](NC(=O)[C@H](Cc1c[nH]c2ccccc12)NC(=O)[C@H](Cc1ccc(C(=O)c2ccccc2)cc1)NC(=O)[C@H](CCCC)NC(=O)[C@H](Cc1ccc(OS(=O)(=O)O)cc1)NC(=O)[C@H](CC(=O)O)NC(=O)CNC(=O)[C@H](N)Cc1ccc(O)cc1)C(=O)N[C@@H](CC(=O)O)C(=O)N[C@@H](Cc1ccc(C(=O)c2ccccc2)cc1)C(N)=O
